Data from publication PMC6983058, “Biologically Active Echinulin-Related Indolediketopiperazines from the Marine Sediment-Derived Fungus Aspergillus niveoglaucus” (Molecules, 2019).
“Also recorded” adds a separate entry of the source. Read-outs that look alike come from different tables or passages of the source.

Columns and labels:
Neuro-2a cells [1] = test: Rotenone-induced cell model of Parkinson's disease (viability, MTT); settings: 10 µM compound 1 h pretreatment, rotenone 10 µM, 24 h
Procedure: (§3) Neuroblastoma Neuro-2a line cells (1 × 10^4 cells/well) were treated with the test compounds at concentrations of 10 µM for 1 h, and then the neurotoxins at different concentrations were added to the neuroblastoma cell suspensions [40]. Rotenone (Sigma-Aldrich, USA) was used at 10 µM. Paraquat (Sigma-Aldrich, USA) was used at 500 µM. […] Cells incubated without neurotoxins and the test compounds and cells incubated with neurotoxins only were used as positive and negative controls, respectively. After 24 h of incubation, the cell viabilities were measured using the MTT method.

Neuro-2a cells [2] = test: ROS level in paraquat-treated Neuro-2a cells (H2DCF-DA); assay type: cell-based, murine; settings: 10 µM compound 1 h, then paraquat 500 µM 1 h; neurotoxin alone 148.4 ± 6.9
Procedure: Cell suspensions (1×10^4 cells/well) were incubated with solutions of the test compound (10 µM) for 1 h. Then, 6-hydroxydopamine solution (Sigma-Aldrich, 50 µM) or paraquat solution (Sigma-Aldrich, 500 µM) were added to each well. After 30 min (for 6-hydroxydopamine) or 1 h (for paraquat), 20 μL of 2,7-dichlorodihydrofluorescein diacetate (H2DCF-DA) solution (Molecular Probes, final concentration […]) was added to each well, and the microplate was incubated for an additional 10 min at 37 °C. The intensity of dichlorofluorescin fluorescence was measured at λex = 485 nm and λem = 518 nm. The results are presented as % relative to the control.

[3] = cell-free, cited from earlier work; for IC50: read-out: DPPH Scavenger Activity IC50
in vitro = settings: mouse
Procedure: (§4) Neuro-2a cells were cultured in DMEM medium containing 10% fetal bovine serum (Biolot, St. Petersburg, Russia) and 1% penicillin/streptomycin (Invitrogen, Carlsbad, CA, USA). Cells were incubated at 37 °C in a humidified atmosphere containing 5% (v/v) CO2 [43].
(§5) The in vitro cytotoxicities of the individual substances were evaluated using an MTT (3-(4,5-dimethylthiazol-2-yl)-2,5-diphenyltetrazolium bromide) assay, which was performed according to the manufacturer’s instructions (Sigma-Aldrich, St. Louis, MO, USA). […] Docetaxel was used as a reference substance.

[4] = MTT cytotoxicity assay, Neuro-2a cells; settings: mouse
Procedure: as §4, §5

Neuro-2a cells [5] = test: Paraquat-induced cell model of Parkinson's disease (viability, MTT); settings: 10 µM compound 1 h pretreatment, paraquat 500 µM, 24 h
Procedure: as §3

RAW264.7 cells = settings: murine macrophage RAW264.7; potency similar to that in Neuro-2a; cited from earlier work
[6] = target: T1, urease from Canavalia ensiformis (Canavalia ensiformis, UniProt P07374); test: Cell-free urease inhibition assay (indophenol method); assay type: biochemical
T1 construct: purchased Sigma

[7] = MTT cytotoxicity assay, LNCaP cells; assay type: cell-based; settings: human
Procedure: (§1) 22Rv1, PC-3, and LNCaP cell lines were cultured according to the manufacturer’s instructions in 10% FBS/RPMI media (Invitrogen, Carlsbad, CA, USA). Cells were continuously kept in culture for a maximum of 3 months and were routinely inspected microscopically for stable phenotypes and regularly checked for contamination with mycoplasma. Cell line authentication was performed by DSMZ (Braunschweig, Germany) using highly polymorphic short tandem repeat loci.
(§2) Docetaxel was used as a reference substance.

Neuro-2a cells [8] = test: 6-OHDA-induced cell model of Parkinson's disease (viability, MTT); assay type: cell-based, murine; settings: 10 µM compound 1 h pretreatment, 6-OHDA 50 µM, 24 h
[9] = DPPH-radical scavenger assay (cell-free); assay type: biochemical; settings: MeOH, 30 min
Procedure: The DPPH radical scavenging activities of the compounds were tested as described.
The compounds were dissolved in MeOH, and the solutions (120 µL) were dispensed into wells of a 96-well microplate. In all, 30 µL of the DPPH (Sigma-Aldrich, Steinheim, Germany) solution in MeOH (7.5 × 10^−3 M) was added to each well. The concentrations of the test compounds in the mixtures were 10 and 100 µM. The mixtures were shaken and left to stand for 30 min, and the absorbance of the resulting solutions was measured at 520 nm with a microplate reader MultiscanFC (ThermoScientific, Waltham, MA, USA). The radical scavenging activities of the compounds at 100 µM are presented as % relative to the control (MeOH alone), and the concentration scavenging 50% of the DPPH radical (EC50) was calculated for each compound.

Staphylococcus aureus = tested on: Staphylococcus aureus; set-up: method as in Du et al. (supplement ref 5); settings: ref Du et al. (supplement ref 5); cited from earlier work
[10] = MTT cytotoxicity assay, 22Rv1 cells; assay type: cell-based; settings: human
Procedure: as §1, §2

[11] = MTT cytotoxicity assay, PC-3 cells; assay type: cell-based; settings: human
Procedure: as §1, §2

T1 sequence (P07374 whole entry, looked up): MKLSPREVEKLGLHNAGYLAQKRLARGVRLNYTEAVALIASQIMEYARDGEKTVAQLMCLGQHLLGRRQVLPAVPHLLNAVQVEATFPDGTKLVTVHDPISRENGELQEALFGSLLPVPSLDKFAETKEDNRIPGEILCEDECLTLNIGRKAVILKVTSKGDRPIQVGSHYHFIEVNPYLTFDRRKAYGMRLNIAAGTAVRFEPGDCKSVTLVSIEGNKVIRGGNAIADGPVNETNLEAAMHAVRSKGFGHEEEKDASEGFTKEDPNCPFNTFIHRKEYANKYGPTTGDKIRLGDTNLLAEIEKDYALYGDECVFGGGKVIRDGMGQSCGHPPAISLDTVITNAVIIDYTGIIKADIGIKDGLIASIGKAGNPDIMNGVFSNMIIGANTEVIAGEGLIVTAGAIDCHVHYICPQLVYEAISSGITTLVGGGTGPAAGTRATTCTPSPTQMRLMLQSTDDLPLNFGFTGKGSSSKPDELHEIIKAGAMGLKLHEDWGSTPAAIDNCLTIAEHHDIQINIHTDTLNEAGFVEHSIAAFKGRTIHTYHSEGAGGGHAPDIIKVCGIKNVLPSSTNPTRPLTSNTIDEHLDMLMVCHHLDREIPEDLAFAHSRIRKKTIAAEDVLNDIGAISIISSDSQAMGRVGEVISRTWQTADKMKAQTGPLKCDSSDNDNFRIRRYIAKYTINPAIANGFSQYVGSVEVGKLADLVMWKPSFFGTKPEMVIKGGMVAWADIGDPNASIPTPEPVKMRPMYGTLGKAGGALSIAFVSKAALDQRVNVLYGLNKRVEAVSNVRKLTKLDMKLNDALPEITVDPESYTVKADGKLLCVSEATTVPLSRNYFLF

## C=CC(C)(C)c1[nH]c2ccccc2c1/C=C1\NC(=O)C(=O)NC1=O [Compound 6, neoechinulin E]
Neuro-2a cells [1]
  increase in viability of rotenone-treated cells: significant increases
Neuro-2a cells [2]
  ROS Level, % of Control, Paraquat (PQ): 94.1 ± 2.9 % of Control
[3]
  IC50: 46 µM
In vitro
  IC50: > 100 µM

## C=CC(C)(C)c1[nH]c2ccccc2c1/C=c1\[nH]c(=O)c(=C)[nH]c1=O [Compound 4, neoechinulin B]
[4]
  IC50: 50.9 µM
Neuro-2a cells [1]
  increase in viability of rotenone-treated cells: cytoprotective activity; also recorded: significant increases
Neuro-2a cells [2]
  ROS Level, % of Control, Paraquat (PQ): 101.8 ± 7.6 % of Control
Neuro-2a cells [5]
  increase in viability of PQ-treated cells: inactive
RAW264.7 cells
  cytotoxicity against RAW264.7 cells: cytotoxic
[3]
  IC50: 34 µM

## NC(N)=S [Thiourea, reference compound]
[6]; cell-free, 0.2-100.0 µM tested, pH 7.3-7.5, read-out: urease inhibition IC50
  IC50: 23 µM

## CC(=O)O[C@@]12CO[C@@H]1C[C@H](O)[C@@]1(C)C(=O)[C@H](O)C3=C(C)[C@@H](OC(=O)[C@H](O)[C@@H](NC(=O)OC(C)(C)C)c4ccccc4)C[C@@](O)([C@@H](OC(=O)c4ccccc4)[C@H]21)C3(C)C [Docetaxel, reference compound]
[7]
  IC50: 0.004 µM

## C=CC(C)(C)c1[nH]c2cc(CC=C(C)C)ccc2c1/C=c1\[nH]c(=O)c(=C)[nH]c1=O [Compound 5, neoechinulin C]
[4]
  IC50: 40.6 µM
Neuro-2a cells [1]
  increase in viability of rotenone-treated cells: not active
Neuro-2a cells [2]
  ROS Level, % of Control, Paraquat (PQ): 97.4 ± 2.8 % of Control
Neuro-2a cells [5]
  increase in viability of PQ-treated cells: protected
[3]
  IC50: 31.1 µM

## C=CC(C)(C)c1[nH]c2cc(CC=C(C)C)ccc2c1/C=C1\NC(=O)[C@@]2(C[C@@H](C)C=C[C@H]2/C=C/c2c(O)cc(CC=C(C)C)c(O)c2C=O)NC1=O [Compound 1b, (−)-Cryptoechinuline B]
[4]
  IC50: > 100 µM
Neuro-2a cells [1]
  increase in viability of rotenone-treated cells: inactive
Neuro-2a cells [5]
  increase in viability of PQ-treated cells: protected
Neuro-2a cells [8]
  increase in viability of 6-OHDA-treated cells: inactive
[9]
  DPPH Scavenger Activity IC50: weak
  IC50: 118 ± 4.7 µM

## C=CC(C)(C)c1[nH]c2cc(CC=C(C)C)ccc2c1/C=C1\NC(=O)[C@]2(C[C@H](C)C=C[C@@H]2/C=C/c2c(O)cc(CC=C(C)C)c(O)c2C=O)NC1=O [Compound 1a, (+)-Cryptoechinuline B]
[4]
  IC50: > 100 µM
Neuro-2a cells [1]
  increase in viability of rotenone-treated cells: neuroprotective activity; also recorded: significant increases
Neuro-2a cells [5]
  increase in viability of PQ-treated cells: neuroprotective activity
Neuro-2a cells [8]
  increase in viability of 6-OHDA-treated cells: neuroprotective activity
Neuro-2a cells [8]; Mus musculus, N2a, read-out: increase in viability of 6-OHDA-treated cells
  viability at 10 µM: 40.7%
[9]
  DPPH Scavenger Activity IC50: weak
  IC50: 122 ± 7.1 µM

## C=CC(C)(C)c1[nH]c2c(CC=C(C)C)cc(CC=C(C)C)cc2c1C[C@@H]1NC(=O)[C@H](C)NC1=O [Compound 3, echinulin]
[4]
  IC50: > 100 µM
Neuro-2a cells [1]
  increase in viability of rotenone-treated cells: inactive
Staphylococcus aureus
  antibacterial activity against Staphylococcus aureus: antibacterial activity
Neuro-2a cells [2]
  ROS Level, % of Control, Paraquat (PQ): 90.3 ± 2.2 % of Control
[10]
  IC50: 63.2 µM
Neuro-2a cells [5]
  increase in viability of PQ-treated cells: inactive
[7]
  IC50: 25.9 µM
[3]
  IC50: 29.9 µM
[6]
  IC50: 29.8 µM
[11]
  IC50: 41.7 µM

## C=CC(C)(C)c1[nH]c2cc(CC=C(C)C)ccc2c1/C=C1\NC(=O)C(=O)NC1=O [Compound 7, neoechinulin]
[4]
  IC50: > 100 µM
Neuro-2a cells [1]
  increase in viability of rotenone-treated cells: not active
[10]
  IC50: 49.9 µM
Neuro-2a cells [5]
  increase in viability of PQ-treated cells: inactive
[7]
  IC50: 38.9 µM
[9]
  IC50: 62.6 ± 1.1 µM
[11]
  IC50: 63.8 µM

## C=CC(C)(C)c1[nH]c2ccccc2c1C=C1NC(=O)C2(CC(C)C=CC2C=Cc2c(O)cc(CC=C(C)C)c(O)c2C=O)NC1=O (centres unmarked) [Compound 2, cryptoechinuline D]
[4]
  IC50: > 100 µM
Neuro-2a cells [1]
  increase in viability of rotenone-treated cells: did not show any cytoprotective effects
Neuro-2a cells [5]
  increase in viability of PQ-treated cells: did not show any cytoprotective effects
Neuro-2a cells [8]
  increase in viability of 6-OHDA-treated cells: did not show any cytoprotective effects
[3]
  DPPH Scavenger Activity IC50: strong
  IC50: 23.6 µM
